Laboratory results: BindingDB's records for doi:10.1073/pnas.182234399 (Case Western Reserve University, 2002)

How the values were obtained:
D(3) dopamine receptor = D(3) dopamine receptor (Homo sapiens, UniProt P35462)
[1] = biological target: 5-hydroxytryptamine receptor 1A (Homo sapiens, UniProt P08908)
[2] = biological target: 5-hydroxytryptamine receptor 6 (Homo sapiens, UniProt P50406)
[3] = biological target: 5-hydroxytryptamine receptor 2A (Rattus norvegicus, UniProt P14842)
Histamine H1 receptor = Histamine H1 receptor (Homo sapiens, UniProt P35367)
[4] = biological target: 5-hydroxytryptamine receptor 1B (Homo sapiens, UniProt P28222)
[5] = biological target: 5-hydroxytryptamine receptor 1D (Homo sapiens, UniProt P28221)
[6] = biological target: 5-hydroxytryptamine receptor 2B (Homo sapiens, UniProt P41595)
[7] = biological target: 5-hydroxytryptamine receptor 7 (Homo sapiens, UniProt P34969)
[8] = biological target: 5-hydroxytryptamine receptor 1E (Homo sapiens, UniProt P28566)
[9] = biological target: Neuronal acetylcholine receptor subunit alpha-4 (Homo sapiens, UniProt P43681)
[10] = biological target: Neuronal acetylcholine receptor subunit alpha-4 (Rattus norvegicus, UniProt P09483)
[11] = biological target: 5-hydroxytryptamine receptor 3A (Homo sapiens, UniProt P46098)
[12] = biological target: Beta-1 adrenergic receptor (Rattus norvegicus, UniProt P18090)
[13] = biological target: Muscarinic acetylcholine receptor M3 (Homo sapiens, UniProt P20309)
[14] = biological target: Metabotropic glutamate receptor 5 (Homo sapiens, UniProt P41594)
D(2) dopamine receptor = D(2) dopamine receptor (Homo sapiens, UniProt P14416)
[15] = biological target: Alpha-1A adrenergic receptor (Homo sapiens, UniProt P35348)
D(1A) dopamine receptor = D(1A) dopamine receptor (Homo sapiens, UniProt P21728)
[16] = biological target: 5-hydroxytryptamine receptor 5A (Homo sapiens, UniProt P47898)
[17] = biological target: 5-hydroxytryptamine receptor 2C (Rattus norvegicus, UniProt P08909)
D(1B) dopamine receptor = D(1B) dopamine receptor (Homo sapiens, UniProt P21918)
[18] = biological target: Metabotropic glutamate receptor 4 (Homo sapiens, UniProt Q14833)
[19] = biological target: Metabotropic glutamate receptor 1 (Homo sapiens, UniProt Q13255)
[20] = biological target: Metabotropic glutamate receptor 2 (Homo sapiens, UniProt Q14416)
[21] = biological target: Muscarinic acetylcholine receptor M2 (Homo sapiens, UniProt P08172)
[22] = biological target: Muscarinic acetylcholine receptor M1 (Homo sapiens, UniProt P11229)
[23] = biological target: Gamma-aminobutyric acid receptor subunit alpha-1 (Rattus norvegicus, UniProt P62813)
Vasopressin V1b receptor = Vasopressin V1b receptor (Homo sapiens, UniProt P47901)
[24] = biological target: Muscarinic acetylcholine receptor M4 (Homo sapiens, UniProt P08173)
[25] = biological target: Neuronal acetylcholine receptor subunit alpha-2 (Homo sapiens, UniProt Q15822)
[26] = biological target: Neuronal acetylcholine receptor subunit alpha-3 (Homo sapiens, UniProt P32297)
D(4) dopamine receptor = D(4) dopamine receptor (Rattus norvegicus, UniProt P30729)
[27] = biological target: Sodium-dependent dopamine transporter (Bos taurus, UniProt P27922)
[28] = biological target: Glutamate receptor ionotropic, NMDA 1 (Rattus norvegicus, UniProt P35439)
[29] = biological target: Metabotropic glutamate receptor 6 (Homo sapiens, UniProt O15303)
[30] = biological target: Metabotropic glutamate receptor 8 (Homo sapiens, UniProt O00222)
[31] = biological target: Muscarinic acetylcholine receptor M5 (Homo sapiens, UniProt P08912)
[32] = biological target: Beta-2 adrenergic receptor (Rattus norvegicus, UniProt P10608)
Vasopressin V2 receptor = Vasopressin V2 receptor (Homo sapiens, UniProt P30518)

Measured: Ki

Sequence of 5-hydroxytryptamine receptor 1B (P28222 whole entry): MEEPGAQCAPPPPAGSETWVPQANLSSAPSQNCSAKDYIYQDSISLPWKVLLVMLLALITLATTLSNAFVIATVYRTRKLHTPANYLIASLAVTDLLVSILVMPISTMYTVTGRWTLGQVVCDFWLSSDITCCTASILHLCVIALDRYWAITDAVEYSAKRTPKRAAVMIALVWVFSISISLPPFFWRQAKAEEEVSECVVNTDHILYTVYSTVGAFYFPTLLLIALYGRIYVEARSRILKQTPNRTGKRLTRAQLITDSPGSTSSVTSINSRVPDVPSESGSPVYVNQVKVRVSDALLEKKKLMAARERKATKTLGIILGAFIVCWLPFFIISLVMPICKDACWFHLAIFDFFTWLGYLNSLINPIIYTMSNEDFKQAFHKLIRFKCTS
Sequence of Histamine H1 receptor (P35367 whole entry): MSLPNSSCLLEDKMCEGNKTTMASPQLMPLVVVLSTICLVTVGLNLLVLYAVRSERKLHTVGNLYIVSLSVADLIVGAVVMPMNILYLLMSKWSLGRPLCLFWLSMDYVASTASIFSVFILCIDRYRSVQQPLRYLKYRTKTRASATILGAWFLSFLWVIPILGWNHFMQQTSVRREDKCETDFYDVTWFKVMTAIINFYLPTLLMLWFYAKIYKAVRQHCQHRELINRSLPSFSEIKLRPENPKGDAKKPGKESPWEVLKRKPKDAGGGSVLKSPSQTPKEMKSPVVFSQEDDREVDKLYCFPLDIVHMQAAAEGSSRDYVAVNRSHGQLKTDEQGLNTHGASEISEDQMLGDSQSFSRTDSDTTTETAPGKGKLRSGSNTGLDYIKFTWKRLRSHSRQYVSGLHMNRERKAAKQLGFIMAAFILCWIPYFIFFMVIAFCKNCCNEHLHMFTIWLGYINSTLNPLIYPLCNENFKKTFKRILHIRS
Sequence of Neuronal acetylcholine receptor subunit alpha-3 (P32297 whole entry): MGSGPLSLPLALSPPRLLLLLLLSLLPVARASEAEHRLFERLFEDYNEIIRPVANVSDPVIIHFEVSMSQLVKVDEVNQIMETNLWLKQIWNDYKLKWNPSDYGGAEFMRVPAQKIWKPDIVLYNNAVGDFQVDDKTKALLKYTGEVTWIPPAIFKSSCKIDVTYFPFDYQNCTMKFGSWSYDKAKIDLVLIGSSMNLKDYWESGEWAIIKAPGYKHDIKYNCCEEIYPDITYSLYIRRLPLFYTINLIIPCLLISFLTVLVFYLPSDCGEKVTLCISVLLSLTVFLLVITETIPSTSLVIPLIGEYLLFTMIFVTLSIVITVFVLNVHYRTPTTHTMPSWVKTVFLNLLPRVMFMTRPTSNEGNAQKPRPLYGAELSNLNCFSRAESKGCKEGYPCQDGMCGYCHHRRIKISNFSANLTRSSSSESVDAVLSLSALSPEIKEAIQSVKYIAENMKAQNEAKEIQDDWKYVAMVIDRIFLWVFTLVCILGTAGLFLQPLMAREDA
Sequence of Beta-1 adrenergic receptor (P18090 whole entry): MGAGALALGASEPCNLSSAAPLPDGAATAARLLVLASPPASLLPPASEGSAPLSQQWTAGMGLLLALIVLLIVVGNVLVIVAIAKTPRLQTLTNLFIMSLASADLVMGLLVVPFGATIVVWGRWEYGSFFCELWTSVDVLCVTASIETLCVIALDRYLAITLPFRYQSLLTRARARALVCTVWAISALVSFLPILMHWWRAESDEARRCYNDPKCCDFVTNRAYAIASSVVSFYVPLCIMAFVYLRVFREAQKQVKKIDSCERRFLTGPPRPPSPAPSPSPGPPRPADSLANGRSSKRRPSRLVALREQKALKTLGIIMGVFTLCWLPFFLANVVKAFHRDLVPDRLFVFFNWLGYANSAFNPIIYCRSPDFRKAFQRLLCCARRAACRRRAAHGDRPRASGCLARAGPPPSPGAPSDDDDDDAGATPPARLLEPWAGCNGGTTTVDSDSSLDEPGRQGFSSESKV
Sequence of D(1B) dopamine receptor (P21918 whole entry): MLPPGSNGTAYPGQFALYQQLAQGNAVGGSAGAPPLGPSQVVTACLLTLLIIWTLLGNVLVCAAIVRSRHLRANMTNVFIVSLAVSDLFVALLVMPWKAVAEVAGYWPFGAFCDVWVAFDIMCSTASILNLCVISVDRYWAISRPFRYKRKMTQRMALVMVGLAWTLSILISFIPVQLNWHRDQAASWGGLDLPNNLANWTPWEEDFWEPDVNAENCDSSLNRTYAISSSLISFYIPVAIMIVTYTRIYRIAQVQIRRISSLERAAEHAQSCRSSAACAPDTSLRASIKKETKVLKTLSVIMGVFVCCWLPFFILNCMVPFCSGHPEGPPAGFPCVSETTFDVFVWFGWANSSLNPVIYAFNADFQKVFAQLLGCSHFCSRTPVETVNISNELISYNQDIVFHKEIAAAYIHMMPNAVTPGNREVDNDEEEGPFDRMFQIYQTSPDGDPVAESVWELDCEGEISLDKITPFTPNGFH
Sequence of Neuronal acetylcholine receptor subunit alpha-2 (Q15822 whole entry): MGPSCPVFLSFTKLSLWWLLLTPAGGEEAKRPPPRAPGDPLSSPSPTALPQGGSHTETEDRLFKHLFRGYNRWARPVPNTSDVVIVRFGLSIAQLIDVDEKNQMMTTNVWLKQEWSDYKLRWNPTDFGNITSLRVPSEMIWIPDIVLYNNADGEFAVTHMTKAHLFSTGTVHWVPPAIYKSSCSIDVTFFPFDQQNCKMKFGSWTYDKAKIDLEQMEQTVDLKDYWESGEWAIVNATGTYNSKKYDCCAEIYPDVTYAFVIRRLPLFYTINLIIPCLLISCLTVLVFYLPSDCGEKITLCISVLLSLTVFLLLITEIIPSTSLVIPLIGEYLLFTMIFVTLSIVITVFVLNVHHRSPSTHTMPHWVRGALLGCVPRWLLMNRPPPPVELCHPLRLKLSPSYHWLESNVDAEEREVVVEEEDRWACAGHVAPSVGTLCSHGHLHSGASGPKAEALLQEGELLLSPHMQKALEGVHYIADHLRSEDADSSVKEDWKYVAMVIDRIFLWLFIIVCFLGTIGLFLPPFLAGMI
Sequence of 5-hydroxytryptamine receptor 2A (P14842 whole entry): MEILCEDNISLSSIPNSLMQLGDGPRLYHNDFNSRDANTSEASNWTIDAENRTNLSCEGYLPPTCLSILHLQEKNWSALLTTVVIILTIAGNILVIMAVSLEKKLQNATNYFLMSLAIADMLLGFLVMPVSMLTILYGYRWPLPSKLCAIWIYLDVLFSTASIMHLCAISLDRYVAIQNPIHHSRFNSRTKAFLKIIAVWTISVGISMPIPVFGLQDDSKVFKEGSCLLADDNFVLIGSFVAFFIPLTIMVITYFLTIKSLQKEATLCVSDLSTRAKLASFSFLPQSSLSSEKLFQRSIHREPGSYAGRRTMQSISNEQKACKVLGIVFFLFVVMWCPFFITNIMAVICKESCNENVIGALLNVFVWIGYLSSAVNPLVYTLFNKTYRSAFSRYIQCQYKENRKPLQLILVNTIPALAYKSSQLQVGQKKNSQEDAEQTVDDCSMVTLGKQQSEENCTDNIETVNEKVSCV
Sequence of Metabotropic glutamate receptor 4 (Q14833 whole entry): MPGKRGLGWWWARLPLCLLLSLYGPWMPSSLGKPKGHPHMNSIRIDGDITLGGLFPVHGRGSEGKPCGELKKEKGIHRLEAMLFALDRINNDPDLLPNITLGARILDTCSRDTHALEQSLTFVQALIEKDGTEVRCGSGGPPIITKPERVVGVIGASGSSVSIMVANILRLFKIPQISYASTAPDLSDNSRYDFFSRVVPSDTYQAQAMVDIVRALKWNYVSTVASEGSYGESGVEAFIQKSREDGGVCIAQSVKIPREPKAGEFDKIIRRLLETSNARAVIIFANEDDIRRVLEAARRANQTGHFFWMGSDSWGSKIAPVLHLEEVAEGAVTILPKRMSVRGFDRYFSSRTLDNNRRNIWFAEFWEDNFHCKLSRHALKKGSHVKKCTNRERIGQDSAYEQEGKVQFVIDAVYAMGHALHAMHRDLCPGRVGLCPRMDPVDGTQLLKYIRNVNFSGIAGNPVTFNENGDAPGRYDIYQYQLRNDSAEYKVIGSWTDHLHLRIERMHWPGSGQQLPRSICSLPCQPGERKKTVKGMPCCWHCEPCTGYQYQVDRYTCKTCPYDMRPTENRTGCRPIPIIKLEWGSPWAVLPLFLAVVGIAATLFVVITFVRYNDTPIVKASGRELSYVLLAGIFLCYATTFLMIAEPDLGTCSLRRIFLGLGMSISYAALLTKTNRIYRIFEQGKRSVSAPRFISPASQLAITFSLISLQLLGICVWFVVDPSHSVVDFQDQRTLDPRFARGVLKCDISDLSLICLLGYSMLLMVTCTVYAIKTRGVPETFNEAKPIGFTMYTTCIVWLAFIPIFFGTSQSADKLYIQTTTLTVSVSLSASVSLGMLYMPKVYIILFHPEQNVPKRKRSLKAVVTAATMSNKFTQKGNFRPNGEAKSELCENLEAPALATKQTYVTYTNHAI
Sequence of Neuronal acetylcholine receptor subunit alpha-4 (Homo sapiens, UniProt P43681) (P43681 whole entry): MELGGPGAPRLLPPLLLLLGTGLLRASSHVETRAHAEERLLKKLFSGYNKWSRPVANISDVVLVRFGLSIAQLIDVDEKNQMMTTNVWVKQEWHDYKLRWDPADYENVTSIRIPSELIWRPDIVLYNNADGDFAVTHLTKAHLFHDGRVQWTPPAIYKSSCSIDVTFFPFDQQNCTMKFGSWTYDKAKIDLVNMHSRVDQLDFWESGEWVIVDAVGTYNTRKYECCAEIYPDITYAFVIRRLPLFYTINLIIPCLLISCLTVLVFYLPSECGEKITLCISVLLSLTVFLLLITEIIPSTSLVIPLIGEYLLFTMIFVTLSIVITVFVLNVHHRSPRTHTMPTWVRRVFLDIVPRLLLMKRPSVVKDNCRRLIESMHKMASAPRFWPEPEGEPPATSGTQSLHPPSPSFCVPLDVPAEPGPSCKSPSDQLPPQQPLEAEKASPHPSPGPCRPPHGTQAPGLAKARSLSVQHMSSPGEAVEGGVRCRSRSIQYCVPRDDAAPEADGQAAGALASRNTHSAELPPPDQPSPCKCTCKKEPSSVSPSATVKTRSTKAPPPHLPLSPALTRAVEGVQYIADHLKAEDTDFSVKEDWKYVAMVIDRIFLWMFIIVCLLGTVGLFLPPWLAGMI

COC(=O)[C@@H]1C[C@H](OC(C)=O)C(=O)[C@H]2[C@@]1(C)CC[C@H]1C(=O)O[C@H](c3ccoc3)C[C@]21C [2S,4aR,6a(R,7R,9S,10aS,10bR)-9-(acetyloxy)-2-(furan-3-yl)dodecahydro-6a,10b-dimethyl-4,10-dioxo-2H-naphtho[2,1-c]pyran-7-carboxylic acid methyl ester]
> 10 µM: D(3) dopamine receptor | [1] | [2] | [3] | Histamine H1 receptor | [4] | [5] | [6] | [7] | [8] | [9] | [10] | [11] | [12] | [13] | [14] | D(2) dopamine receptor | [15] | D(1A) dopamine receptor | [16] | [17] | D(1B) dopamine receptor | [18] | [19] | [20] | [21] | [22] | [23] | Vasopressin V1b receptor | [24] | [25] | [26] | D(4) dopamine receptor | [27] | [28] | [29] | [30] | [31] | [32] | Vasopressin V2 receptor
